{"source": "patent US20120040956A1", "about": "“INHIBITORS OF HIF-1 PROTEIN ACCUMULATION” (INTERMED DISCOVERY GMBH, priority 2008, published 2012)", "key": {"HIF-1": {"system": "HIF-1", "test": "HIF-1-dependent luciferase reporter gene activity in 293T cells under hypoxia", "format": "cell-based, human", "protocol": "A HIF-1-dependent luciferase reporter gene was transfected into 293T cells by transfection with Rotifect™ (Trademarked by Carl Roth GmbH; Karlsruhe, Germany) or alternatively into Jurkat T cells by electroporation. Both cell lines were transfected with a HIF-1-dependent reporter gene. The next day, cells were preincubated for 1 h with the indicated, submicromolar concentrations of the test compounds and then incubated for further 8 h under normoxic or hypoxic (1% O2) conditions. After that, cells were harvested followed by the analysis of luciferase activity in a luminometer.\nA HIF-1-dependent luciferase reporter gene was transfected into 293T cells. The next morning, cells were pretreated for 1 h with the indicated concentrations of compounds, followed by induction of hypoxia (hypoxia chamber) for 8 h. Subsequently cells were harvested and lyzed. Luciferase activity in cell extracts was measured in a luminometer (Duo Lumat LB 9507, Berthold) by injecting 20 microliter of assay buffer to 20 microliter of extract. Light emission was measured for 10 s, relative light units are given.\nAfter transfection of 293T cells with a HIF-1-dependent luciferase reporter gene, cells were further incubated under normoxic or hypoxic (8 h, 1% O2) conditions as shown in FIG. 4. Effectively blocking concentrations of the IMDs (250 nM each) were added either 1 hour prior to hypoxia or 2 and 4 hours after induction of hypoxia."}, "[1]": {"system": "cell-free protein translation (BMV mRNA, ribosomes)", "test": "Cell-free protein translation of Brome mosaic virus (BMV) mRNA with ribosomes", "format": "biochemical", "conditions": "relevant (nM) concentrations, SDS-PAGE", "protocol": "The effect of IMD-019064 on cell-free protein translation in vitro was investigated (see also assay principle in FIG. 8). Brome mosaic virus (BMV) mRNA encoding for 4 different viral proteins was incubated with ribosomes in the presence and absence of IMD-019064 (FIG. 9a), IMD-026259, IMD-026260 (FIG. 9b), or cycloheximide (Chx, 10 μM) (positive control) and the formed proteins analyzed by SDS-PAGE.\nPanels show representative SDS-PAGE protein gels. Vehicle-containing translation reactions (Veh) represent 100% translation efficacy, while Cycloheximide (Chx; 10 μg/ml) a known inhibitor of protein translation that was used as a positive control does show significant protein reduction."}, "HIF-1α protein": {"system": "HIF-1α protein", "test": "Hypoxia induced HIF-1α protein accumulation in 293T cells (immunoblotting)", "format": "cell-based, human", "conditions": "250 nM, 1 h preincubation, hypoxia 4 h, 1% O2", "protocol": "Effects of IMD-026259, IMD-026260 and IMD-019064 on the stabilisation/accumulation of HIF-1α protein were investigated. 293T cells were preincubated with the indicated concentrations of all three compounds. After 1 h of pre-incubation, 293T cells were pre-incubated with the indicated concentrations of compounds and then further incubated under normoxic or hypoxic (4 h, 1% O2) conditions respectively. After lysis of cells in 1×SDS sample buffer and sonication, the samples were analyzed for HIF-1α abundance by immunoblotting."}, "[2]": {"system": "human vasculature (CD34 positive vessels) from transplanted HUVECs", "test": "Spheroid-based in vivo angiogenesis assay in SCID mice", "conditions": "0.3 mg/ml p.o. every 3rd day, pvalue=0.0001", "from_the_text": "Human endothelial cells (ECs; HUVECs) are applied subcutaneously in (n=10) SCID mice embedded in extracellular matrix components in the presence of smooth muscle cells (SMCs) and fibroblasts (NHDFs). The transplanted human ECs (EC spheroids in combination with ECs in suspension) form a complex and perfused three dimensional network of capillaries of human origin that is anastomosed (connected with) with the mouse vasculature and host (mouse) pericyte-covered. The quality of the newly formed vasculature is monitored by micro vessel density counting. Aim of the study is to investigate the anti-angiogenic potential of the test items in the spheroid-based in vivo angiogenesis assay. […]\nIn the standard assay (with VEGF-A and FGF-2 stimulation and only ECs) the first perfused vessels are usually detected at day 4 to day 6. […]\nFor histological examination of the human vasculature, paraffin sections (thickness=8-10 μm) were prepared from all plugs. Blood vessel formation was detected by staining the sections for human CD34 (NCL-END, Menarini, Berlin, Germany). Three sections per plug were analysed and three images were taken from each section at a magnification of 200× using the Eclipse TE2000-U microscope (Nikon, Kanagawa, Japan). The area analyzed per section (three images) was 0.44 mm^2. […]"}}}
{"smiles": "CNCCOc1ccc2c(c1)OC1(c3ccc(Cl)cc3)C(c3ccccc3)CC(O)C21O", "note": "(centres unmarked) [IMD-026260, (1,3a,8b)-3a-(4-chlorophenyl)-6-(2-(methylamino)ethoxy)-3-phenyl-2,3,3a,8b-tetrahydro-1H-benzo[d]cyclopenta[b]furan-1,8b-diol]", "values": [{"measurement": "time-dependency of inhibition of HIF-1-dependent luciferase expression", "setting": "HIF-1; 250 nM, added 4 hours after induction of hypoxia (8 h, 1% O2)", "result": "able to inhibit HIF-1-dependent luciferase expression even when added 4 hours after hypoxic induction"}, {"measurement": "IC50", "setting": "HIF-1; Homo sapiens, HEK-293T, 1 h pretreatment, hypoxia 8 h, read-out: IC50, HIF-1 luciferase inhibitory activity", "result": 18, "unit": "nM"}, {"measurement": "effect on in vitro protein translation", "setting": "[1]", "result": "No significant effect"}, {"measurement": "block of HIF-1α protein accumulation", "setting": "HIF-1α protein", "result": "almost completely block"}, {"measurement": "reduction of human vessel number compared to a vehicle control", "setting": "[2]", "result": 42, "unit": "%"}]}
